Earlier results, collected in patent US20250288577A1, “METHODS OF TREATING A VIRUS INFECTION AND METHODS OF INHIBITING VIRAL REPLICATION” (CORNELL UNIVERSITY, priority 2022, published 2025).

What was measured:
Adenovirus = details: reported in literature
influenza A = details: reported in literature

## O=C(Cc1cccc(OC(F)(F)F)c1)Nc1ccc(CCCCc2nnc(NC(=O)Cc3ccccn3)s2)nn1 [CB839, Telaglenastat]
Adenovirus
  block of Adenovirus: block
Influenza A
  block of influenza A: block
